The target of data set [1] is T1, human uPA (Homo sapiens, UniProt P00749).
T1 construct: purchased Sigma/Aldrich, St. Louis, MO
The experiment in a line: Kinetic inhibition of human urokinase, Spectrozyme UK substrate, initial rates at 405 nm. The format is biochemical. The following applies: for Ki: 0.1 M Tris, pH 8.8, 25°C, Spectrozyme UK 10 μM to 150 μM, read-out: Ki, dissociation constant for inhibition of human uPA; for fold improvement in Ki over compound 4d: compared with unsubstituted 4d. As to the method: Human urokinase (Sigma/Aldrich, St. Louis, MO) and Spectrozyme UK (American Diagnostica, Stamford, CT) were used for the kinetic studies. Enzyme activity was routinely measured in 1 ml volumes of 0.1 M Tris, pH 8.8, Spectrozyme UK (10 μM to 150 μM) and 0.64 μg (3,770 units/mg protein) human urokinase. Reactions were monitored at 405 nm, 25°C, with a Perkin/Elmer Lambda S2 UV/vis spectrophotometer. Michaelis constants and Ki values were determined from initial rate data, measured at 8 to 10 substrate concentrations, by non-linear regression analysis with SigmaPlot's Enzyme Kinetics Module™ (Chicago, IL, USA).

SMILES strings stand for the structures. Where a name gives a salt, the structure may show the parent alone. A value given as a limit tells only on which side of the number the result lay.

For orientation: melting point means the temperature, or range, at which the solid turns liquid. In general, Ki refers to a dissociation constant, usually derived from enzyme kinetics or from competition with a known ligand. On to `O=c1oc(OCCBr)c(Cl)c2ccc([N+](=O)[O-])cc12` [Compound 4a, 3-(2-Bromoethoxy)-4-chloro-7-nitro-1H-isochromen-1-one], for which the melting point lay within 126 to 128 °C. Besides, the Ki in data set [1] stood at 1800 ± 200 nM.
The compound `O=c1oc(OCCCBr)c(Cl)c2ccc([N+](=O)[O-])cc12` [Compound 4b, 3-(3-Bromopropoxy)-4-chloro-7-nitro-1H-isochromen-1-one] displayed a melting point of 131 to 134 °C. Moreover, in data set [1], the Ki is 2400 ± 200 nM and the “fold improvement in Ki over compound 4d” value came out at 4 fold.
Consider `O=c1oc(OCCBr)c(Cl)c2ccccc12` [Compound 4c, 3-(2-Bromoethoxy)-4-chloro-1H-isochromen-1-one], for which the melting point lay in the range of 81 to 82 °C. In data set [1], the Ki came out at 14000 ± 1000 nM.
For `O=c1oc(OCCCBr)c(Cl)c2ccccc12` [Compound 4d, 3-(3-Bromopropoxy)-4-chloro-1H-isochromen-1-one], the melting point was 95 to 97 °C. The Ki in data set [1] is 9000 ± 1000 nM. Also, the “type of inhibition of uPA” value in data set [1] (kinetic studies) is given as “simple competitive inhibition”.
`O=c1oc(OCCCCBr)c(Cl)c2ccccc12` [Compound 4e, 3-(4-Bromobutoxy)-4-chloro-1H-isochromen-1-one]: the melting point was in the range of 75 to 77 °C. In data set [1], the Ki worked out at 18000 ± 2000 nM.
Consider `Br.N=C(N)SCCOc1oc(=O)c2ccccc2c1Cl` [Compound 5c, 2-[2-(4-Chloro-1-oxo-1H-isochromen-3-yloxy)ethyl]isothiourea hydrobromide], for which the melting point was 168 to 170 °C. In addition, the Ki in data set [1] amounted to 33 ± 4 nM.
Compound `Br.N=C(N)SCCCOc1oc(=O)c2ccccc2c1Cl` [Compound 5d, 2-[3-(4-Chloro-1-oxo-1H-isochromen-3-yloxy)propyl]isothiourea hydrobromide] showed a melting point of 159 to 163 °C. The Ki in data set [1] was determined as 55 ± 3 nM.
For `N=C(N)SCCCCOc1oc(=O)c2ccccc2c1Cl` [Compound 5e, 2-[4-(4-Chloro-1-oxo-1H-isochromen-3-yloxy)butyl]isothiourea hydrobromide], the Ki in data set [1] is 140 ± 20 nM.
As for `Nc1ccc2c(Cl)c(OCCBr)oc(=O)c2c1` [Compound 6a, 7-Amino-3-(2-bromoethoxy)-4-chloro-1H-isochromen-1-one], the melting point was in the range of 134 to 136 °C. Besides, the Ki in data set [1] was found to be 12000 ± 1000 nM.
For the compound `Nc1ccc2c(Cl)c(OCCCBr)oc(=O)c2c1` [Compound 6b, 7-Amino-3-(3-bromopropoxy)-4-chloro-1H-isochromen-1-one], the melting point lay within 106 to 107 °C. For the same compound, the Ki in data set [1] is 9500 ± 1000 nM.
As for `N=C(N)SCCOc1oc(=O)c2cc(N)ccc2c1Cl` [Compound 7a, 2-[2-(7-amino-4-chloro-1-oxo-1H-isochromen-3-yloxy)ethyl]isothiourea hydrobromide], in data set [1], the inhibitory constant (Ki) was 20 ± 3 nM.
Take `Br.N=C(N)SCCCOc1oc(=O)c2cc(N)ccc2c1Cl` [Compound 7b, 2-[3-(7-Amino-4-chloro-1-oxo-1H-isochromen-3-yloxy)propyl]isothiourea hydrobromide]: the melting point was found to be 173 °C. In addition, the Ki in data set [1] came out at 38 ± 5 nM.
`O=C(Nc1ccc2c(Cl)c(OCCBr)oc(=O)c2c1)c1ccccc1` [Compound 8a, N-[3-(2-Bromoethoxy)-4-chloro-1-oxo-1H-isochromen-7-yl]benzamide] came in with a melting point of 214 to 216 °C. Further, the Ki in data set [1] came out at 1400 ± 200 nM.
`O=C(Nc1ccc2c(Cl)c(OCCCBr)oc(=O)c2c1)c1ccccc1` [Compound 8b, N-[3-(3-Bromopropoxy)-4-chloro-1-oxo-1H-isochromen-7-yl]benzamide] came in with a melting point of 193 to 194 °C. Also, in data set [1], the Ki stood at 34 ± 2 nM and the “fold improvement in Ki over compound 4d” value was 300 fold.
`Br.N=C(N)SCCOc1oc(=O)c2cc(NC(=O)c3ccccc3)ccc2c1Cl` [Compound 9a, 2-[2-(7-Benzamido-4-chloro-1-oxo-1H-isochromen-3-yloxy)ethyl]isothiourea hydrobromide] displayed a melting point of 173 to 175 °C. Also, the Ki in data set [1] was determined as 84 ± 7 nM.
Take `Br.N=C(N)SCCCOc1oc(=O)c2cc(NC(=O)c3ccccc3)ccc2c1Cl` [Compound 9b, 2-[3-(7-Benzamido-4-chloro-1-oxo-1H-isochromen-3-yloxy]propyl)isothiourea hydrobromide]: the melting point was 203 to 204 °C. In addition, the Ki in data set [1] worked out at 10 ± 8 nM.
The compound `O=c1oc(OCCBr)cc2ccc([N+](=O)[O-])cc12` [Compound 10a, 3-(2-Bromoethoxy)-7-nitro-1H-isochromen-1-one] came in with a melting point of 95 to 97 °C. The Ki in data set [1] amounted to 4200 ± 400 nM.
Regarding `O=c1oc(OCCCBr)cc2ccc([N+](=O)[O-])cc12` [Compound 10b, 3-(3-Bromopropoxy)-7-nitro-1H-isochromen-1-one], the melting point lay within 117 to 118 °C. The inhibition constant Ki in data set [1] came out at 4300 ± 300 nM.
In the case of `O=C(c1c(OCCCBr)oc(=O)c2ccccc12)C(F)(F)F` [Compound 10c, 3-(3-Bromopropoxy)-4-trifluoroacetyl-1H-isochromen-1-one], the melting point is 116 to 117 °C. Further, the Ki in data set [1] came out at 14000 ± 2000 nM.
With `Nc1ccc2cc(OCCBr)oc(=O)c2c1` [Compound 11, 7-Amino-3-(2-bromoethoxy)-1H-isochromen-1-one], the melting point was > 280 °C. In addition, in data set [1], the inhibition constant (Ki) is 65000 ± 9000 nM.

The values are drawn from paper PMC1479381, “Uncharged isocoumarin-based inhibitors of urokinase-type plasminogen activator” (BMC Chemical Biology, 2006).
